# Laboratory results: PMC12388300, “The Chelating Abilities of Tertiary Amines with N-O-Donors Towards Cu(II) Ions and the Catalytic Properties of the Resulting Complexes” (Molecules, 2025)
# Read-outs that look alike come from different tables or passages of the source. Marks after values point to notes of the source that are not given here. Where no end group is shown, it is not given here.
# How the values were obtained:
# [1] = CAT-like activity: O2 pressure from hydrogen peroxide dismutation; type: biochemical; parameters: Rmax: unit not given here; conditions: [catalyst] = 200 μM, [H2O2] = 20–30 mM in BBS 50 mM, pH = 7.8
# Method: The studied catalase-like activity of the complexes was evaluated by measuring the pressure resulting from the oxygen produced during the dismutation of the hydrogen peroxide. For this analysis, a borate-based buffer system (BBS 50 mM, pH 7.8) was utilized to avoid the competitive binding of phosphate anions.
# Catalytic measurement assays were conducted using a Varian Cary 100 spectrophotometer with a 3 mL quartz cuvette (1 cm path length) for evaluating SOD-like activity. For the assessment of peroxidase-mimicking activity, a Varian Cary 50 instrument and identical cuvettes were utilized. To monitor the CAT-like activity, a 25 mL vial, equipped with a septum for solution injection, was used as a reactor and connected to a pressure transducer. […]
# To monitor the CAT-like activity, a 25 mL vial was used as a reactor, connected to a pressure transducer and
# a septum for the injection.
# [2] = UV–Vis monitoring of complex stability during H2O2 dismutation; type: physicochemical; conditions: during H2O2 dismutation, BBS 50 mM pH 7.8
# Excerpt: The reaction progression was monitored by UV–Vis to gather insights into the stability of the complexes during H2O2 dismutation (Figures S45–S48 in Supplementary Materials). Analyzing the spectra recorded for the systems derived from HL1 and HL5, it is possible to observe changes in the absorption bands. In the case of the mononuclear species containing HL1, the alteration in the absorption band takes place over a comparatively extended period, in agreement with the occurrence of the delay period previously noted. The intensity associated with the π→π * electronic transition progressively diminishes, coinciding with a rise in molecular oxygen generation. Such a trend implies structural reconfiguration within the coordination environment of the complex, which appears necessary to initiate the catalytic event. On the other hand, the characteristic absorption feature vanishes after 4 h as a result of the formation of radical species. The UV–Vis profile of the complex Cu(HL5)(ClO4)2 (Figure S46) undergoes a faster modification.
# Figure S46: UV-Vis spectra of Cu(HL5)(ClO4)2 at time 0 (red) and after 7 h (light red). The colours variation represents an increment of 5 min from t=0 to t=15 min, of 15 min from t=15 to t= 45 min and 45 min from t= 45 to t=360 min.
# Conditions: [Cu(HL5)(ClO4)2]= 200 uM, [H2O2]=10mM in BBS 50mM pH=7.8. Zoom: temporal trends compared to O2 (red) and Abs (light red) on the maximum absorption at 294 nm.
# Figure S47: UV-Vis spectra of Cu2(L1)2(ClO4)2 at time 0 (blue) and after 24 hours (light blue). Every change of colors represents a temporal increase of 90 minutes. Conditions: [Cu2(L1)2(ClO4)2] = 200 µM, [H2O2] = 10 mM in BBS 50 mM, pH = 7.8. Zoom: temporal trends compared to O2 (blue) and Abs (light blue) on the maximum absorption at 288 nm.
# Figure S48: UV-Vis spectra of Cu2(L5)2(ClO4)2 at time 0 (dark green) and after 24 hours (light green). Every change of colours represents a temporal increase of 90 minutes. Conditions: [Cu2(L5)2(ClO4)2] = 200 µM, [H2O2] = 10 mM in BBS 50 mM, pH = 7.8. […]
# [3] = Cyclic voltammetry of the Cu(II)/Cu(I) couple; type: physicochemical
# Method: To assess this behavior, the corresponding redox potentials were measured by cyclic voltammetry (CV), offering key insights into the electron-transfer properties of the complexes. The metal ion redox potential should ideally lie between the potential for oxidation (−0.16 V vs. NHE) (Equation (1)) and reduction (0.89 V vs. NHE) of superoxide radicals (Equation (2)).(1) O2∙−→O2+e^− (2) O2∙−+e^−+H^+→H2O2
# The key electrochemical parameters extracted from the cyclic voltammograms are summarized in Table 3, highlighting a similar redox behavior of the complexes with both ligands. However, the nature of the anion appears to influence the properties of the mononuclear species formed in situ, compared with the isolated complexes.
# Cyclic voltammetry experiments were carried out using a BAS Cell C3 EC-epsilon potentiostat equipped with a conventional three-electrode system consisting of a glassy carbon working electrode (3 mm diameter, geometric surface 7 mm^2), a platinum wire counter electrode (CE), and a silver/silver chloride reference electrode (Ag/AgCl, 3 M KCl). Voltammograms were recorded in phosphate-buffered saline (PBS; 10 mM, 150 mM NaCl, pH 7.8) containing 0.25 mM of the complex. The measurements were performed within a potential window from −600 mV to +400 mV, employing various scan rates (50 mV/s, 100 mV/s, 200 mV/s, 400 mV/s, and 800 mV/s).
# [4] = SOD activity, indirect cytochrome C (CytC) assay, xanthine/xanthine oxidase; type: biochemical; conditions: [CytC] = 10 μM, pH = 7.8
# Method: To reduce uncertainty about the actual active species involved in the reaction, the catalytic investigations were made with the isolated species. The ability to catalyze superoxide dismutation was assessed using the indirect cytochrome C-based assay originally introduced by McCord and Fridovich. In this kind of test, the presence of a catalyst with SOD activity, acting as a scavenger for O2^•− and generated via a xanthine/xanthine oxidase system, prevents the electron transfer to cytochrome C (Cyt C) to form […].
# Catalytic measurement assays were conducted using a Varian Cary 100 spectrophotometer with a 3 mL quartz cuvette (1 cm path length) for evaluating SOD-like activity. For the assessment of peroxidase-mimicking activity, a Varian Cary 50 instrument and identical cuvettes were utilized. To monitor the CAT-like activity, a 25 mL vial, equipped with a septum for solution injection, was used as a reactor and connected to a pressure transducer.
# [5] = cited from earlier work; for IC50: CytC assay, read-out: IC50 (SOD activity)
# [6] = Potentiometric titration: protonation constants of the ligands; type: physicochemical; conditions: I = 0.1 M, 25 °C; for logβi, Lx^− + 2H^+ ⇌ [(HLx)H]^+ / logβi, Lx^− + 3H^+ ⇌ [(HLx)H2]^2+ / logβi, Lx^− + 4H^+ ⇌ [(HLx)H3]^3+ / logβi, Lx^− + H^+ ⇌ HLx: overall protonation constant, 5% v/v DMSO/H2O, HCl/KCl; for logKi, Lx^− + H^+ ⇌ HLx: stepwise protonation constant (phenolic group); for logKi, HLx + H^+ ⇌ [(HLx)H]^+ / logKi, [(HLx)H2]^2+ + H^+ ⇌ [(HLx)H3]^3+ / logKi, [(HLx)H]^+ + H^+ ⇌ [(HLx)H2]^2+: stepwise protonation constant
# Method: Initially, potentiometric measurements were performed to investigate the binding abilities of the ligands in an aqueous environment at different pH levels and to construct the corresponding speciation curves (Figure 1). The analyses were performed in HCl/KCl mixtures, with KCl used to maintain a constant ionic strength of 0.1 mol·dm^−3. The first step of the potentiometric studies was the assessment of the acid-base properties of both ligands. The overall and stepwise protonation constants are collected in Table 1.
# (§1) Potentiometric measurements were performed using a Metrohm pH-meter system equipped with a semi-micro combination electrode, at 25 °C. The system was calibrated based on hydrogen ion concentration using HCl. Ligands were prepared in a 5% (v/v) DMSO solution with water containing HCl/KCl with a constant ionic strength of I = 0.1 M to achieve a final concentration of 1 mM and 0.6 mM of HL1 and HL5, respectively. Titrations were conducted by incrementally adding 0.1 M KOH using a microsyringe at 25°C, spanning a pH interval from 2.5 to 11.5, under an argon atmosphere. The stability constants and complex stoichiometries were determined from the titration data using the SUPERQUAD and HYPERQUAD programs.
# [7] = Potentiometric titration: stability constants and speciation of in situ-formed Cu(II) complexes; type: physicochemical; conditions: for logβi of [Cu(HLx)H]^3+ / logβi of [Cu(HLx)]^2+ / logβi of [Cu(Lx)(OH)2]^− / logβi of [Cu(Lx)(OH)] / logβi of [Cu(Lx)]^+: overall stability constant, in situ-formed complex, I = 0.1 M, 25 °C; for pH of maximum concentration of [Cu(HLx)H]^3+: speciation curves, ligand/copper(II) 1:1; for pKi of [Cu(Lx)(OH)2]^− / pKi of [Cu(Lx)(OH)] / pKi of [Cu(Lx)]^+ / pKi of [Cu(HLx)]^2+: stepwise stability constant; for pKi of [Cu(HLx)]^2+: [Cu(HLx)H]^3+ ⇄ [Cu(HLx)]^2+ + H^+
# Method: Based on the potentiometric studies, the overall and stepwise stability constants of formed complexes were obtained and collected in Table 2; the speciation curves of in situ-formed complexes are presented in Figure 2.
# as §1
# [8] = [Catalyst] = 100 μM, [H2O2] = 30 mM, MOPS buffer (50 mM, pH 7.5); cited from earlier work
# [9] = vs NHE, PBS 10 mM, 150 mM NaCl, pH 7.8, 0.25 mM complex
Molecule,IC50 [5] [µM],Log (kcat) [5],"logβi, Lx^− + 2H^+ ⇌ [(HLx)H]^+ [6]","logβi, Lx^− + 3H^+ ⇌ [(HLx)H2]^2+ [6]","logβi, Lx^− + 4H^+ ⇌ [(HLx)H3]^3+ [6]","logβi, Lx^− + H^+ ⇌ HLx [6]","logKi, Lx^− + H^+ ⇌ HLx [6]","logKi, HLx + H^+ ⇌ [(HLx)H]^+ [6]","logKi, [(HLx)H2]^2+ + H^+ ⇌ [(HLx)H3]^3+ [6]","logKi, [(HLx)H]^+ + H^+ ⇌ [(HLx)H2]^2+ [6]",logβi of [Cu(HLx)H]^3+ [7],logβi of [Cu(HLx)]^2+ [7],logβi of [Cu(Lx)(OH)2]^− [7],logβi of [Cu(Lx)(OH)] [7],logβi of [Cu(Lx)]^+ [7],pH of maximum concentration of [Cu(HLx)H]^3+ [7],pKi of [Cu(Lx)(OH)2]^− [7],pKi of [Cu(Lx)(OH)] [7],pKi of [Cu(Lx)]^+ [7],pKi of [Cu(HLx)]^2+ [7],other results
Oc1ccccc1CN(Cc1ccccn1)Cc1ccccn1.[Cu+2].[O-][Cl+3]([O-])([O-])[O-].[O-][Cl+3]([O-])([O-])[O-] [Cu(HL1)(ClO4)2],,,,,,,,,,,,,,,,,,,,,"Time (to maximum O2 production) [1]: 950 min; Induction Time ([1]; triplicate, ±10% error): 250 min; O2 generated ([1]; triplicate, ±10% error): 7.6 mmol/L; Rmax ([1]; triplicate, ±10% error): 0.25; time after which the characteristic absorption feature vanishes [2]: 4 h; ΔE ([3]; Epc − Epa, PBS pH 7.8): −0.085 V; │ia/ic│ ([3]; peak current ratio, PBS pH 7.8): 0.61; E1/2 ([3]; vs NHE, E1/2=(Epc+Epa)/2, PBS pH 7.8): −0.135 V; Epa [3, 9]: −0.092 V; Epc [3, 9]: −0.177 V; IC50 ([4]; CytC assay, [xanthine] = 40 μM, [xanthine oxidase] = 0.0053 U/mL, phosphate buffer 50 mM): 1.41 µM; Log (kcat) ([4]; kcat(O2•−)=kCytC·[CytC]/IC50, kCytC=2.6×10^5 M^−1s^−1): 6.27 ^h"
O=S(=O)([O-])[O-].[Cu+2] [CuSO4],72.2,~6,,,,,,,,,,,,,,,,,,,
"Oc1ccccc1CN(Cc1ccccn1)Cc1ccccn1 [HL1, N-(2-hydroxylbenzyl)-N,N-bis(2-pyridylmethyl)amine]",,,16.29 ± 0.02,21.53 ± 0.02,25.24 ± 0.02,9.99 ± 0.01,9.99,6.30,3.71,5.24,22.67 ± 0.06,16.84 ± 0.08,−10.42 ± 0.09,0.03 ± 0.09,9.73 ± 0.08,4.5,10.45,9.70,7.11,5.83,"metal ion binding efficiency in the competition diagram ([7]; HL1:Cu(II):HL5 molar ratio 1:1:1, pH 3 to 11): significantly less efficient in metal ion binding"
"COc1cccc(CN(Cc2ccccn2)Cc2ccccn2)c1O [HL5, 2-{[Bis(pyridin-2-ylmethyl)amino]methyl}-6-methoxyphenol]",,,15.77 ± 0.02,20.71 ± 0.02,24.43 ± 0.02,9.52 ± 0.01,9.52,6.25,3.72,4.94,23.43 ± 0.08,18.04 ± 0.10,−8.56 ± 0.11,1.77 ± 0.11,11.51 ± 0.10,3.5,10.33,9.74,6.53,5.39,
O=C([O-])CCN(Cc1ccccn1)Cc1ccccn1.[Cu+2] [[Cu(BPMPA)]^+],1.04,7.09,,,,,,,,,,,,,,,,,,,
(CATm1)Cu2: di-copper complex of CATm1 = peptide sequence PHYKHRLH (also: di-copper complex),,,,,,,,,,,,,,,,,,,,,O2 generated [8]: 0.3 mmol/L; Rmax [8]: 273 µM/min; Time [8]: 3 min
